Consider three sequences from patent US20240173377A1, “RETRO - INVERSO REGULATORY T CELL EPITOPES” (EpiVax, Inc., priority 2020, published 2024).

“Also recorded” adds a separate entry of the source.

In test [1] the target is Class II HLA alleles (HLA DRB1). Description: HLA binding assay (soluble MHC, competition with labeled control peptide). As to conditions: retro-inverso peptide versus L-amino acid counterpart (SEQ ID NOS: 114 and 115); HLA DRB1 *0101, *0301, *0401, *0401, *0701, *1101, *1301 and *1501; FIG. 3. Set-up: species or system human. As to the method:
HLA Binding Assay. Binding activity is analyzed at EpiVax (Providence, Rhode Island). The binding assay used (Steere A C et al., (2006), J Exp Med, 2003(4):961-71) yields an indirect measure of peptide-MHC affinity. Soluble HLA molecules are loaded onto a 96-well plate with the unlabeled experimental retro-inverso Tregitopes and labeled control peptide. Once the binding mixture reaches steady equilibrium (at 24 hours), the HLA-retro-inverso Tregitope complexes are captured on an ELISA plate coated with anti-human DR antibody and detected with a Europium-linked probe for the label (PerkinElmer, Waltham, MA). Time-resolved fluorescence measuring bound labeled control peptide is assessed by a SpectraMax® M5 unit (Spectramax, Radnor, PA). Binding of experimental retro-inverso Tregitopes is expressed as the percent inhibition of the labeled control peptide ([…]). The percent inhibition values for each experimental retro-inverso Tregitope (across a range of molar concentrations) is used to calculate the concentration at which it inhibits 50% of the labeled control […] specific binding, i.e. the retro-inverso Tregitope's IC50. […]

Another test relates to CD4+ T cells. Description: Tetanus Toxoid bystander assay, CD4+ T cell proliferation in PBMC (CFSE). The format is cell-based, human. As to conditions: TT-treated PBMCs of four donors; versus L-amino acid counterparts (SEQ ID NOS: 114 and 115); FIGS. 7A-7B, 8A-8B. The source says:
The purpose of this experiment is to establish the ability of the instantly-disclosed retro-inverso Tregitopes (e.g., any one or more of SEQ ID NO: 1-29 and 42-107 and/or fragments and variants thereof, and optionally 1 to 12 additional amino acids distributed in any ratio on the N-terminus and/or C-terminus of the polypeptide of SEQ ID NOS: 1-29 and 42-107 as disclosed herein, wherein each of the amino acids of SEQ ID NOS: 1-29 and 42-107 (and in aspects, the optional extensions thereof) except for glycine are in the D-amino acid configuration) of the instant disclosure to suppress the proliferation CD4+ Tcells, including antigen stimulated CD4+ effector memory T cells, which in aspects is by either direct (engagement and activation of TReg) or indirect (modulation of APC phenotype) means. […]

The subject of another test is human DR molecules. As to conditions: cited from earlier work.
The test system of test [2] is PBMCs from lupus patients. The following applies: randomly selected lupus patients; cited from earlier work.

On to DQHLVTLVSVVTYTSNYQEE [SEQ ID NO: 16], for which the “IC50 values, binding to HLA DRB1 alleles” value in test [1] is “scored comparably; also recorded: comparable affinity”. Also, the “ability to reduce CD4+ cell proliferation” value with CD4+ T cells is “comparable ability”.

With KGYIFSHGTFHITLI [SEQ ID NO: 100], the “IC50 values, binding to HLA DRB1 alleles” value in test [1] was “scored comparably; also recorded: comparable affinity”. Besides, in the test with CD4+ T cells, the “ability to reduce CD4+ cell proliferation” value is “comparable ability”.

For the sequence “RIHMVYSKRSGKPRGYAFIEY (listed as Homo sapiens) [peptide 131-151]”, in the test on human DR molecules, the “binding to soluble HLA class II molecules” value was “binds to a large panel of human DR molecules”. In addition, the “lupus patients whose PBMCs contain T cells that proliferate in response to the peptide” value in test [2] is given as 40%.
